Laboratory results taken from ChEMBL document CHEMBL5584348, “Exploring Degradation of Intrinsically Disordered Protein Yes-Associated Protein Induced by Proteolysis TArgeting Chimeras” (J Med Chem, 2024).
Active and inactive are the calls of the source. The calls are words filed in the database; no cut-off is given here.

Tests used:
[1] = target: T1, von Hippel-Lindau disease tumor suppressor/Transcriptional coactivator YAP1 (Homo sapiens, UniProt P40337+P46937); experiment: PROTAC activity at YAP/VHL in human Huh-7 cells assessed as induction of YAP degradation at 20 uM measured for 24 hrs in presence of MLN-4924 by Western blot analysis; format: cell-based
Target sequence in this assay (P40337 whole entry, looked up): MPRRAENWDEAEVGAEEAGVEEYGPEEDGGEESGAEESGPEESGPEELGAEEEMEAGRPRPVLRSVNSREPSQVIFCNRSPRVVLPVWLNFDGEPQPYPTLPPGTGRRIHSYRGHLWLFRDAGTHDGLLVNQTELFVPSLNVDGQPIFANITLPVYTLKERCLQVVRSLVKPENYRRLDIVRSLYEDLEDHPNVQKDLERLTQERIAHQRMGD
Target sequence in this assay (P46937 whole entry, looked up): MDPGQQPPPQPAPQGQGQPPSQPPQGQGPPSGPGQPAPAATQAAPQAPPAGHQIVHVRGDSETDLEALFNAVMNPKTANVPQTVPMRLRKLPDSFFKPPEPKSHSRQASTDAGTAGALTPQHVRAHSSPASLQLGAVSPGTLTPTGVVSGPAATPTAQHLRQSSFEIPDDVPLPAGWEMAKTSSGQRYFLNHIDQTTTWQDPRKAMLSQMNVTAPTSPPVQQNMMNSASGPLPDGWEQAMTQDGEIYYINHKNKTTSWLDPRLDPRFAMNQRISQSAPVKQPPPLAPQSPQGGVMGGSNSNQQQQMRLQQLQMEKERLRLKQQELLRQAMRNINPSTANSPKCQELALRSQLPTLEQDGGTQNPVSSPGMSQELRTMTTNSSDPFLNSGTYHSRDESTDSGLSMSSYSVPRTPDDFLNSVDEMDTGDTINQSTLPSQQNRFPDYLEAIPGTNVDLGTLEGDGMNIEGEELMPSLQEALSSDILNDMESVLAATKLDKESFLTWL

[2] = target: T1, von Hippel-Lindau disease tumor suppressor/Transcriptional coactivator YAP1; experiment: PROTAC activity at YAP/VHL in human Huh-7 cells assessed as induction of YAP degradation at 10 uM measured for 24 hrs by Western blot analysis relative to control; format: cell-based
Target sequence in this assay (P40337 whole entry, looked up): as the sequence (P40337 whole entry, looked up) above
Target sequence in this assay (P46937 whole entry, looked up): as the sequence (P46937 whole entry, looked up) above

NCI-H226 [3] = experiment: Antiproliferative activity against human NCI-H226 cells assessed as cell killing at 10 uM incubated for 3 days by CCK-8 assay; format: functional, cell-based; details: time 3.0 day
Huh-7 [4] = experiment: Antiproliferative activity against human Huh-7 cells overexpressing YAP assessed as cell growth inhibition incubated for 4 days by CCK-8 assay; format: functional, cell-based; details: Huh-7, 96 h
Huh-7 [5] = experiment: Antitumor activity against human Huh-7 cells xenografted in immunodeficient male NSG mouse assessed as tumor growth inhibition at 35 mg/kg, ip administered every 3 days for 24 days in presence of sorafenib; format: functional; details: Huh-7, 576 h, time 24 day, read-out: TGI
[6] = AUClast in Sprague-Dawley rat at 35 mg/kg, ip measured upto 24 hrs by LC-MS/MS analysis; format: ADME, organism-based; details: in vivo
AML12 = experiment: Antiproliferative activity against mouse AML12 cells assessed as suppression of cell proliferation incubated for 4 days by CCK-8 assay; format: toxicity, cell-based; details: aml12, 96 h, time 4 day
[7] = Toxicity in immunodeficient male NSG mouse xenografted with human Huh-7 cells assessed as change in total bilirubin level in liver at 35 mg/kg, ip administered every 3 days for 24 days; format: organism-based; details: in vivo, 576 h, time 24 day
Huh-7 [8] = experiment: Antitumor activity against human Huh-7 cells xenografted in immunodeficient male NSG mouse assessed as reduction in CTGF level at 35 mg/kg, ip administered every 3 days for 24 days by Western blot analysis; format: functional, organism-based; details: time 24.0 day
[9] = target: T1, von Hippel-Lindau disease tumor suppressor/Transcriptional coactivator YAP1; experiment: PROTAC activity at YAP/VHL in human Huh-7 cells assessed as reduction on CTGF expression incubated for 48 hrs by Western blot analysis; format: cell-based; details: dose 2.5-20 µM
Target sequence in this assay (P40337 whole entry, looked up): as the sequence (P40337 whole entry, looked up) above
Target sequence in this assay (P46937 whole entry, looked up): as the sequence (P46937 whole entry, looked up) above

[10] = Toxicity in immunodeficient male NSG mouse xenografted with human Huh-7 cells assessed as change in body weight at 35 mg/kg, ip administered every 3 days for 24 days; format: organism-based; details: in vivo, 576 h, time 24 day
NCI-H2452 = experiment: Antiproliferative activity against human NCI-H2452 cells expressing NF2 assessed as reduction in cell viability incubated for 4 days by CCK-8 assay; format: functional, cell-based; details: time 4.0 day
[11] = target: T1, von Hippel-Lindau disease tumor suppressor/Transcriptional coactivator YAP1; experiment: PROTAC activity at YAP/VHL in human Huh-7 cells assessed as induction of YAP degradation at 20 uM measured for 24 hrs in presence of MG-132 by Western blot analysis; format: cell-based
Target sequence in this assay (P40337 whole entry, looked up): as the sequence (P40337 whole entry, looked up) above
Target sequence in this assay (P46937 whole entry, looked up): as the sequence (P46937 whole entry, looked up) above

Huh-7 [12] = experiment: Antitumor activity against human Huh-7 cells xenografted in immunodeficient male NSG mouse assessed as suppression of YAP expression at 35 mg/kg, ip administered every 3 days for 24 days; format: functional, organism-based; details: time 24.0 day
[13] = target: T1, von Hippel-Lindau disease tumor suppressor/Transcriptional coactivator YAP1; experiment: PROTAC activity at YAP/VHL in human Huh-7 cells assessed as induction of YAP degradation at 20 uM incubated at 48 hrs by Western blot analysis; format: cell-based
Target sequence in this assay (P40337 whole entry, looked up): as the sequence (P40337 whole entry, looked up) above
Target sequence in this assay (P46937 whole entry, looked up): as the sequence (P46937 whole entry, looked up) above

Huh-7 [14] = experiment: Antitumor activity against human Huh-7 cells xenografted in immunodeficient male NSG mouse assessed as reduction in CYR61 level at 35 mg/kg, ip administered every 3 days for 24 days by Western blot analysis; format: functional, organism-based; details: time 24.0 day
[15] = Tmax in Sprague-Dawley rat at 35 mg/kg, ip measured upto 24 hrs by LC-MS/MS analysis; format: ADME, organism-based; details: in vivo
[16] = target: T1, von Hippel-Lindau disease tumor suppressor/Transcriptional coactivator YAP1; experiment: PROTAC activity at YAP/VHL in human Huh-7 cells assessed as induction of YAP degradation at 20 uM incubated at 12 hrs by Western blot analysis; format: cell-based
Target sequence in this assay (P40337 whole entry, looked up): as the sequence (P40337 whole entry, looked up) above
Target sequence in this assay (P46937 whole entry, looked up): as the sequence (P46937 whole entry, looked up) above

[17] = target: T1, von Hippel-Lindau disease tumor suppressor/Transcriptional coactivator YAP1; experiment: PROTAC activity at YAP/VHL in human NCI-H226 cells assessed as reduction in YAP level at 10 uM incubated for 48 hrs by Western blot analysis relative to control; format: cell-based; parameters: scale not given: the % may be the effect or the level left
NCI-H226 [18] = experiment: Antiproliferative activity against NF2 deficient- human NCI-H226 cells assessed as cell growth inhibition incubated for 4 days by CCK-8 assay; format: functional, cell-based; details: NCI-H226, 96 h
[19] = target: T1, von Hippel-Lindau disease tumor suppressor/Transcriptional coactivator YAP1; experiment: PROTAC activity at YAP/VHL in human Huh-7 cells assessed as suppression of CTGF expression at 10 to 20 uM measured for 24 hrs by Western blot analysis relative to control; format: cell-based; details: dose 10-20 µM
[20] = target: T1, von Hippel-Lindau disease tumor suppressor/Transcriptional coactivator YAP1; experiment: PROTAC activity at YAP/VHL in human Huh-7 cells assessed as downregulation of YAP level at 20 uM incubated at 24 hrs by Western blot analysis; format: cell-based
[21] = target: T1, von Hippel-Lindau disease tumor suppressor/Transcriptional coactivator YAP1; experiment: PROTAC activity at YAP/VHL in human Huh-7 cells assessed as induction of YAP degradation at 20 uM pretreated with VHL ligand 2 for 2 hrs followed by compound addition and measured after 24 hrs by Western blot analysis; format: cell-based
[22] = target: Transcriptional coactivator YAP1 (Homo sapiens) (UniProt P46937); experiment: Inhibition of YAP nuclear localization in human Huh-7 cells assessed as decrease in integrated YAP intensity incubated for 12 hrs by immunofluorescence based microscopic analysis; format: cell-based; details: dose <= 20.0 µM
Chain of Transcriptional coactivator YAP1 (Homo sapiens) (P46937 whole entry): as the sequence (P46937 whole entry, looked up) above

[23] = Toxicity in immunodeficient male NSG mouse xenografted with human Huh-7 cells assessed as change in AST level in liver at 35 mg/kg, ip administered every 3 days for 24 days; format: organism-based; details: in vivo, 576 h, time 24 day
Huh-7 [24] = experiment: Antiproliferative activity against human Huh-7 cells overexpressing YAP assessed as suppression of cell proliferation incubated for 4 days by CCK-8 assay; format: functional, cell-based; details: time 4.0 day
[25] = target: T1, von Hippel-Lindau disease tumor suppressor/Transcriptional coactivator YAP1; experiment: PROTAC activity at YAP/VHL in human Huh-7 cells assessed as induction of YAP degradation at 20 uM measured for 24 hrs in presence of 4-(3,4-dimethoxyphenyl)-2-phenyl-5,7-dihydro-6H-benzo[b]pyrido[2,3-d]azepin-6-one by Western blot analysis; format: cell-based
NCI-H226 [26] = experiment: Antiproliferative activity against NF2 deficient- human NCI-H226 cells assessed as maximum cell growth inhibition incubated for 4 days by CCK-8 assay relative to control; format: functional; details: time 4 day
[27] = target: von Hippel-Lindau disease tumor suppressor/WW domain-containing transcription regulator protein 1 (Homo sapiens) (UniProt P40337+Q9GZV5); experiment: PROTAC activity at TAZ/VHL in human Huh-7 cells assessed as induction of TAZ degradation at 5 to 20 uM incubated for 24 hrs by Western blot analysis; format: cell-based; details: dose 5-20 µM
Chain of von Hippel-Lindau disease tumor suppressor/WW domain-containing transcription regulator protein 1 (Homo sapiens) (P40337 whole entry, looked up, the tested form may be a part): as the sequence (P40337 whole entry, looked up) above
Chain of von Hippel-Lindau disease tumor suppressor/WW domain-containing transcription regulator protein 1 (Homo sapiens) (Q9GZV5 whole entry, looked up, the tested form may be a part): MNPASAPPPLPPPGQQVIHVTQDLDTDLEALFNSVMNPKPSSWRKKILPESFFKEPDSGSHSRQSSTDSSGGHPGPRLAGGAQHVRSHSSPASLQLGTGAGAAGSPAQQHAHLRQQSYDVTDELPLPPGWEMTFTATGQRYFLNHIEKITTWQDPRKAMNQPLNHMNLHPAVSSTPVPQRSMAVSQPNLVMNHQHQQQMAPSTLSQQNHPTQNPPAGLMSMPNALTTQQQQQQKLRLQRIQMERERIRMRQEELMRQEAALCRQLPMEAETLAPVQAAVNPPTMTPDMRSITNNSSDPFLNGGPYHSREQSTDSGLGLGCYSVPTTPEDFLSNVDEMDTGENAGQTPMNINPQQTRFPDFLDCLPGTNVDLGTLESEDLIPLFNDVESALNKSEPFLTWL

[28] = MRT (0 to infinity) in Sprague-Dawley rat at 35 mg/kg, ip measured upto 24 hrs by LC-MS/MS analysis; format: ADME, organism-based; details: in vivo
[29] = Toxicity in immunodeficient male NSG mouse xenografted with human Huh-7 cells assessed as morphological abnormalities in liver at 35 mg/kg, ip administered every 3 days for 24 days by H and E staining based analysis; format: organism-based; details: in vivo, 576 h, time 24 day
[30] = target: T1, von Hippel-Lindau disease tumor suppressor/Transcriptional coactivator YAP1; experiment: PROTAC activity at YAP/VHL in human Huh-7 cells assessed as induction of YAP degradation at 20 uM measured for 24 hrs by Western blot analysis relative to control; format: cell-based
[31] = target: T1, von Hippel-Lindau disease tumor suppressor/Transcriptional coactivator YAP1; experiment: PROTAC activity at YAP/VHL in human NCI-H226 cells assessed as induction of YAP degradation incubated for 48 hrs by Western blot analysis; format: cell-based
Target sequence in this assay (P40337 whole entry): as the sequence (P40337 whole entry, looked up) above
Target sequence in this assay (P46937 whole entry): as the sequence (P46937 whole entry, looked up) above

Activity [1]: Active
Activity [2]: 50%
IC50 (Huh-7 [4]): 2.9 µM
AUC(0-t) at 24 h [6]: 1940 ng·h/mL
Activity [9]: Dose-Dependent Effect
Activity [11]: Active
Activity [13]: 98%
Tmax [15]: 3.33 h
Activity [16]: 10%
Activity [17]: 80%
IC50 (NCI-H226 [18]): 15.3 µM
Activity [19]: Active
Activity [20]: Active
Activity [21]: Active
inhibition [22]: Dose-Dependent Effect
Activity [25]: Active
Activity [27]: Active
MRT inf [28]: 19.9 h
Activity [30]: 78%
DC50 [31]: 8.2 µM
SMILES: COc1cc(-c2cc(-c3ccccc3)nc3c2CC(=O)Nc2ccccc2-3)ccc1OCCOCCOCCC(=O)N[C@H](C(=O)N1C[C@H](O)C[C@H]1C(=O)N[C@@H](C)c1ccc(-c2scnc2C)cc1)C(C)(C)C
Activity (NCI-H226 [3]): inactive
inhibition in vivo at 35 mg/kg (Huh-7 [5]): 93%
Activity (AML12): Non-Toxic
Activity [7]: Non-Toxic
Activity (Huh-7 [8]): Active
Activity [10]: Non-Toxic
Activity (NCI-H2452): inactive
Activity (Huh-7 [12]): Active
Activity (Huh-7 [14]): Active
Activity [23]: Non-Toxic
Activity (Huh-7 [24]): Active
inhibition (INH) (NCI-H226 [26]): 60%
Activity [29]: Non-Toxic
